In patent US7825139B2, “Compounds and methods for selective inhibition of dipeptidyl peptidase-IV” (Forest Laboratories Holdings Limited (BM), priority 2005, dated 2010):

Tests used:
DPP-VIII = target: T1, DPP-VIII (Homo sapiens, UniProt Q6V1X1); assay: DPP-VIII IC50 assay (Ala-Pro AMC), selectivity versus DPP-IV; type: biochemical
T1 construct: The full length cDNAs for human DPP-VII, DPP-VIII, DPP-IX, and FAP were obtained from Open Biosystems; 6xHis (C); made in house
Description: The term “selectivity ratio” refers to the IC50 value generated in a biochemical assay measuring inhibition of DPP-IV compared to the IC50 value generated in a biochemical assay measuring inhibition of another DPP family member (e.g. DPP-VII, DPP-VIII, DPP-IX or FAP) whereby the ratio is obtained by dividing the IC50 value of DPP-VII, DPP-VIII, DPP-IX or FAP by the IC50 value for DPP-IV.
Materials. S9 insect cells and Sf-900 II SFM media were from Invitrogen. Anti-FLAG M2 immunoaffinity gel was from Sigma. Gly-Pro-AMC, Lys-Pro AMC, and Ala-Pro AMC were from Enzyme Systems. IC50 calculations were performed by non-linear regression analysis using Prism software (GraphPad). Preparation of DPP-VII, DPP-VIII, DPP-IX, and FAP baculovirus constructs. The full length cDNAs for human DPP-VII, DPP-VIII, DPP-IX, and FAP were obtained from Open Biosystems. […] Baculovirus was prepared using the Bac-to-Bac Baculovirus Expression System (Invitrogen). The cDNAs in the final baculovirus constructs were sequence verified. Baculovirus expression. […] Infection with DPP-VII, DPP-VIII, DPP-IX, and FAP baculoviral constructs were all performed at an MOI of 4. The infected cells were grown for 48 hours and the cell pellets harvested and frozen until purification. DPP-VII was purified using anti-FLAG immunoaffinity gel according to the manufacturer's instructions. DPP-VIII, DPP-IX, and FAP were purified using a B-PER 6xHis Fusion Protein Column Purification Kit from Pierce. IC50 assay. Recombinant DPPs were diluted in reaction buffer to give fluorescence values of 5000-20000 counts in the “enzyme only wells” 20 min after addition of substrate at 27° C. Reaction buffers were 25 mM (2-(4-Morpholino)-Ethane Sulfonic Acid), pH 5.5 for DPP-VII, 25 mM Tris, pH 8, 1% Triton X-100, 100 mM NaCl for DPP-VIII, and 25 mM Tris pH 8 for DPP-1× and FAP. Test wells in a 96-well microtiter plate contained 88 μL of diluted DPP and 2.5 ul of titrated compound in 50 mM glycine, pH 2.6. “Enzyme only” wells contained 88 uL of diluted DPP and 2.5 ul of glycine buffer. “No enzyme” wells contained 88 uL of reaction buffer without DPP and 2.5 ul of glycine buffer. All assays were done in triplicate. The plate was incubated at 27° C. for 10 min and then cooled on ice for 10 min. Ten microliters of substrate diluted in reaction buffer (40 uM final concentration) without Triton or NaCl were then added to all wells followed by incubation at 27C for 20 min. Substrates were Lys-Pro AMC for DPP-VII, and Ala-Pro AMC for DPP-VIII, DPP-IX, and FAP. Fluorescence in each well was measured at settings of 380/460 nm.

Zucker Obese Fatty rats = assay: Toxicity in rats, oral dosing; type: in vivo, rat; conditions: 5-10 mg/kg, 4-24 hrs post-dose, all Zucker Obese Fatty rats tested
Description: Toxicity in Rats: The Zucker Diabetic Fatty (ZDF) rat model can be used to investigate the effects of the compounds of the invention on both the treatment and prevention of diabetes as rats of this sub-strain are initially pre-diabetic although they develop severe type 2 diabetes characterized by increased HbAl c levels over a period of 6 weeks. The same strain can be used to predict the clinical efficacy of other anti-diabetic drug types. For example, the model predicts the potency and limited clinical efficacy of thiazolidinedione insulin sensitizer compounds. The experimental protocol requires p.o. (oral gavage) administration of either vehicle or test article at indicated doses either QD or BID using a gastric feeding needle with a ball tip, without anesthesia, using hand restraint to adult rats which have been fasted overnight. Animals are monitored for clinical signs at 1, 2, 4 and 8 hour time intervals following the treatment regimen. Whole blood samples (to a maximum level of 10% of the total blood volume every 2 weeks) were collected from the animals from the retro-orbital sinus in accordance with the guidelines of the IACUC committee.
The expected therapeutic dose level could not be reached for the comparative compounds before acute toxicity was observed.

T1 sequence (Q6V1X1 whole entry): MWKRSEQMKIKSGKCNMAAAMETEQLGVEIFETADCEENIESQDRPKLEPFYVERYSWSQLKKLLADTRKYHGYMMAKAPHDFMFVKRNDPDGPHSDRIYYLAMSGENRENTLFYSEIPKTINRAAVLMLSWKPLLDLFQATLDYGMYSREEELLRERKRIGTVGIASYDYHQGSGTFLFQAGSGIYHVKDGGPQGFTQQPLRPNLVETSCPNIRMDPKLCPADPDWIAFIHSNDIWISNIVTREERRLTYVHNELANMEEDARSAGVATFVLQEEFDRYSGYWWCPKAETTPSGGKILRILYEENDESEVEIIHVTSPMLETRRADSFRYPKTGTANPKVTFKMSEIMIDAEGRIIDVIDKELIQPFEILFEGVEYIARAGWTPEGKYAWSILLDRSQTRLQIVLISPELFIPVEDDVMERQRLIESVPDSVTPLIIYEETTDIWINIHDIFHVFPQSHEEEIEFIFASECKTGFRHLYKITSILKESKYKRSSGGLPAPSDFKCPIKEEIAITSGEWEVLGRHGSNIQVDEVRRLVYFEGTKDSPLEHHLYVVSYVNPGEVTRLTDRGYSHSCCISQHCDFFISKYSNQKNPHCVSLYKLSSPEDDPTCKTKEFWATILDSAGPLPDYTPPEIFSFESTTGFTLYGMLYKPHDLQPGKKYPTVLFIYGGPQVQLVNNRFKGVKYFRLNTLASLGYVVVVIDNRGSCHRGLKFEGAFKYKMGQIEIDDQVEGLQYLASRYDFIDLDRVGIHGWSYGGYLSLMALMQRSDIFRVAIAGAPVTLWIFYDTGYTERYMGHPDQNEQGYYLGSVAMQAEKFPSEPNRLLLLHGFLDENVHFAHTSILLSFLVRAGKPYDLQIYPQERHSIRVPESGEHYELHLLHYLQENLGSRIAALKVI

O=C(CNC1CCCC1)N1CCC[C@H]1B(O)O [Compound 19]
inhibition of DPP-VIII (in words) (DPP-VIII): potent inhibitor
acute toxicity in rats (Zucker Obese Fatty rats): acute toxicity (death)
